According to US8808737B2 (Endo Pharmaceuticals Inc., priority 2007, dated 2014):

How the values were obtained:
[1] = Example 5: plasma pharmacokinetics of oxymorphone and metabolites after EN3202 in renal impairment vs healthy controls; details: for Mean bioavailability ratio (90% confidence interval) for AUC relative to controls / Mean bioavailability ratio (90% confidence interval) for Cmax relative to controls: ln-transformed; for AUC: AUC in plasma (mean, untransformed); for AUC(0-t): AUCT in plasma (mean, untransformed); for Cmax: Cmax in plasma (mean, untransformed); for half-life: t½, terminal elimination half-life in plasma (mean)
Procedure: (§1) Attempts were made to match controls with the renal impaired patients with respect to age, gender, and weight. […] Naltrexone (50 mg) was administered on the evening prior to administration of the EN3202 dose.
In order to protect the subjects from potential opioid-related adverse events, a single 50-mg dose of the opioid antagonist ReVia® (naltrexone HCl) was administered at 20:00 the evening prior to administration of test medication. […] Subjects continued fasting until four (4) hours after dose administration. The subjects remained in an upright posture (sitting or standing) for 1 hour after dose administration. All doses were administered with 240 mL of water (room temperature), and the subjects were instructed to drink all the water.
(§2) Plasma and urine pharmacokinetic variables were calculated from the concentration data using standard, non-compartmental methods as outlined in the following table.
All pharmacokinetic results are summarized using appropriate descriptive statistics. Continuous variables were compared between renally impaired and control groups using appropriate parametric statistics. 90% confidence intervals were calculated for the differences or ratios between the renally impaired and control groups. In addition, the association between oral clearance (and other pharmacokinetic variables) and the severity of renal insufficiency (based on creatinine clearance) was explored.

[2] = Example 5: urinary excretion of oxymorphone and metabolites after EN3202 in renal impairment; details: for Mean (SD) Percent of Dose Recovered in Urine (0-120 hours): single oral 20-mg dose of EN3202; for half-life: human, urine, oral, 20 mg, Mean urinary elimination half-life
Procedure: as §1
Each subject was to be instructed to void at the end of each interval (so that each collection interval began with an empty bladder). The void prior to administration of the test medication (time 0) served as the pre-dose blank and was not be included in the collection container.
as §2

[3] = Example 5: correlation of oxymorphone and metabolite plasma AUC / oral clearance with creatinine clearance; assay type: in vivo, human; details: linear regression
Text: Creatinine clearance (ClCR) was estimated at screening using the following Cockroft and Gault^8 equation: […]
All pharmacokinetic results are summarized using appropriate descriptive statistics.
The potential association between plasma AUC and creatinine clearance was explored using linear regression techniques and the results are summarized in Table 36 and FIG. 16.

[4] = Pain levels (VAS, categorical scale) vs plasma oxymorphone and 6-hydroxyoxymorphone after a single dose; assay type: in vivo, human; details: single dose of oxymorphone, FIGS. 1-4
Procedure: For these tests, pain was measured using a Visual Analog Scale (VAS) or a Categorical Scale. The VAS scales consisted of a horizontal line, 100 mm in length. The left-hand end of the scale (0 mm) was marked with the descriptor “No Pain” and the right-hand end of the scale (100 mm) was marked with the descriptor “Extreme Pain”. Patients indicated their level of pain by making a vertical mark on the line. The VAS score was equal to the distance (in mm) from the left-hand end of the scale to the patient's mark. For the categorical scale, patients completed the following statement, “My pain at this time is” using the scale None=0, Mild=1, Moderate=2, or Severe=3.

[5] = in vivo; cited from earlier work
[6] = EN3202 20 mg, mild renal impairment
[7] = EN3202 20 mg, moderate renal impairment
[8] = EN3202 20 mg, severe renal impairment
[9] = human, plasma, oral, 20 mg, single 20 mg dose of EN3202, Healthy Controls
[10] = human, plasma, oral, 20 mg, single 20 mg dose of EN3202, Mild Impairment
[11] = human, plasma, oral, 20 mg, single 20 mg dose of EN3202, Moderate Impairment
[12] = human, plasma, oral, 20 mg, single 20 mg dose of EN3202, Severe Impairment
[13] = single 20 mg dose of EN3202, Moderate Impairment
[14] = single 20 mg dose of EN3202, Severe Impairment
[15] = AUC normalized for body weight vs creatinine clearance
[16] = oral clearance vs creatinine clearance
[17] = plasma AUC vs creatinine clearance

## CN1CC[C@]23c4c5ccc(O)c4O[C@H]2C(=O)CC[C@@]3(O)[C@H]1C5 [Oxymorphone, 14-hydroxydihydromorphinone, reference compound]
[1]; [6]
  Mean bioavailability ratio (90% confidence interval) for AUC relative to controls: 1.2559 (0.8566-1.8414)
  Mean bioavailability ratio (90% confidence interval) for Cmax relative to controls: 1.3772 (0.9359-2.0265)
[1]; [7]
  Mean bioavailability ratio (90% confidence interval) for AUC relative to controls: 1.5722 (1.0723-2.3051)
  Mean bioavailability ratio (90% confidence interval) for Cmax relative to controls: 1.6494 (1.1209-2.4270)
[1]; [8]
  Mean AUC increased relative to healthy controls: 1.7 fold
  Mean bioavailability ratio (90% confidence interval) for AUC relative to controls: 1.6529 (1.1274-2.4234)
  Mean bioavailability ratio (90% confidence interval) for Cmax relative to controls: 1.8042 (1.2261-2.6549)
[1]; EN3202 20 mg, subjects with creatinine clearance values, 30 mL/min
  Mean increase in plasma AUC values relative to healthy controls: approximately 1.8 fold
[1]; human, plasma, oral, 20 mg
  Tmax: 3.5 h
[1]; [9]
  AUC: 18.9 ng·h/mL
  AUC(0-t): 15.8 ng·h/mL
  Cmax: 1.16 ng/mL
  half-life: 13.5 h
[1]; [10]
  AUC: 21.7 ng·h/mL
  AUC(0-t): 19 ng·h/mL
  Cmax: 1.47 ng/mL
  half-life: 12.4 h
[1]; [11]
  AUC: 27.9 ng·h/mL
  AUC(0-t): 26.1 ng·h/mL
  Cmax: 1.75 ng/mL
[1]; [12]
  AUC: 34.5 ng·h/mL
  AUC(0-t): 29.7 ng·h/mL
  Cmax: 2.04 ng/mL
  half-life: 13.3 h
[1]; single 20 mg dose of EN3202, Healthy Controls
  CLo, clearance after oral administration (mean): 22.07 L/min
[1]; single 20 mg dose of EN3202, Mild Impairment
  CLo, clearance after oral administration (mean): 16.14 L/min
[1]; [13]
  CLo, clearance after oral administration (mean): 13.53 L/min
  t½, terminal elimination half-life in plasma (mean): 9.92 h
[1]; [14]
  AUC in plasma (mean, untransformed): 32.46 ng·h/mL
  CLo, clearance after oral administration (mean): 13.79 L/min
  Tmax in plasma (median): 2.0 h
[2]; EN3202 20 mg, 0-120 hours, severe renal impairment
  Mean percentage of the administered dose excreted in the urine: 0.38%
[2]; [8]
  Mean percentage of the dose excreted in the urine unchanged, reduced relative to healthy controls: approximately 50%
  half-life: 21 h
[2]; healthy controls
  Mean (SD) Percent of Dose Recovered in Urine (0-120 hours): 0.77 (0.36) %
[2]; EN3202 20 mg, healthy controls
  half-life: 12.5 h
[2]; [6]
  half-life: 12.1 h
[2]; [7]
  half-life: 13.9 h
[2]; subjects with mild renal impairment
  Mean (SD) Percent of Dose Recovered in Urine (0-120 hours): 1.37 (2.10) %
[2]; subjects with moderate renal impairment
  Mean (SD) Percent of Dose Recovered in Urine (0-120 hours): 0.66 (0.29) %
[2]; subjects with severe renal impairment
  Mean (SD) Percent of Dose Recovered in Urine (0-120 hours): 0.38 (0.19) %
[3]; [15]
  AUC/wt vs. CLCR: R-square: 0.2898
  AUC/wt vs. CLCR: Slope: −0.0013
[3]; [16]
  CL/F vs. CLCR: R-square: 0.2592
  CL/F vs. CLCR: Slope: 0.1229
[3]; [17]
  AUC vs. CLCR: R-square: 0.2400
  AUC vs. CLCR: Slope: −0.1852
[4]
  Relation between pain relief and blood plasma level: there is a correlation
[5]
  Oral bioavailability: about 10%
